Experiment [1] has as its system IFNα-stimulated Kit225 T cells with STAT-dependent luciferase reporter. In words: Kit225 T cell assay, STAT-dependent luciferase reporter, IFNα stimulated. It is filed as cell-based, human. The settings on record: 5-6 hours, read-out: IFNa Kit225 Reporter, LE (IC50). As to the method:
(§1) Kit225 T cells with a stably-integrated STAT-dependent luciferase reporter were plated in RPMI (GIBCO) containing 10% heat-inactivated FBS (GIBCO) and 100 U/mL PenStrep (GIBCO). The cells were then stimulated with either 20 ng/mL human recombinant IL-23 or 200 U/mL human recombinant IFNα (PBL InterferonSource) for 5-6 hours. Luciferase expression was measured using the STEADY-GLO® Luciferase Assay System (PROMEGA®) according to the manufacturer's instructions.
Background: In a reporter assay the amount or activity of a reporter protein is the signal.

Experiment [2] concerns IL-23-stimulated Kit225 T cells with STAT-dependent luciferase reporter. The experiment can be described thus: Kit225 T cell assay, STAT-dependent luciferase reporter, IL-23 stimulated. It is filed as cell-based, human. The settings on record: read-out: IL-23 Kit225 Reporter, LE (IC50). As to the method: as §1
The mark [3] stands for this setting: 200 U/mL human recombinant IFNα.
The mark [4] stands for this setting: 20 ng/mL human recombinant IL-23, 5-6 hours.
Setting [5] is: Homo sapiens, KIT225, 200 U/mL human recombinant IFNα.
The mark [6] stands for this setting: Homo sapiens, KIT225, 20 ng/mL human recombinant IL-23, 5-6 hours.

Molecules are shown by their SMILES. Like-named read-outs stand apart in the source and are kept apart here.

The term IC50 denotes the concentration that gives 50% inhibition.

Consider `CNc1cc(Nc2cccn(C3CCOC3)c2=O)nn2c(C(=O)NC3CCC3)cnc12` (stereo not shown) [Example 221], for which the IC50 in experiment [1] (setting [3]) was determined as 140 nM; in experiment [2] (setting [4]), 500 nM.

With `CNc1cc(Nc2cccn(-c3ccc(C)nn3)c2=O)nn2c(C(=O)NC(C)CC(C)C)cnc12` (stereo not shown) [Example 235], the IC50 came out at 910 nM in experiment [1] (setting [3]) and 560 nM in experiment [2] (setting [4]).

As to `CCNC(=O)c1cnc2c(NC)cc(Nc3cccn(-c4ccn(C)n4)c3=O)nn12` [Example 107], the 50% inhibitory concentration (IC50) in experiment [1] (setting [3]) was determined as 270 nM; in experiment [2] (setting [4]) it was 230 nM.

Regarding `CNc1cc(Nc2cc(Cl)cn(C)c2=O)nn2c(C(=O)NC3CC3)cnc12` [Example 22], the IC50 was 50 nM in experiment [1] (setting [3]) and 150 nM in experiment [2] (setting [4]).

On to `CNc1cc(Nc2cccn(-c3ccc(F)cn3)c2=O)nn2c(C(=O)NCC(C)(C)CO)cnc12` [Example 33], for which the IC50 in experiment [1] (setting [3]) was 260 nM; in experiment [2] (setting [4]), 280 nM.

Turning to `CNc1cc(Nc2cccn(-c3cccnn3)c2=O)nn2c(C(=O)NCC(C)C)cnc12` [Example 112], the IC50 in experiment [1] (setting [3]) amounted to 520 nM; in experiment [2] (setting [4]) it was 280 nM.

As for `CCCc1ccc(-n2cccc(Nc3cc(NC)c4ncc(C(=O)N[C@@H]5C[C@@H]5F)n4n3)c2=O)nn1` [Example 100], the results for the half-inhibitory concentration (IC50) in experiment [1] (setting [3]) and in experiment [2] (setting [4]) were 30 nM and 40 nM, respectively.

Regarding `CNc1cc(Nc2cc(F)cn(C)c2=O)nn2c(C(=O)NCC(C)(C)CO)cnc12` [Example 24], the IC50 in experiment [1] (setting [3]) turned out to be 40 nM; in experiment [2] (setting [4]) it was 150 nM.

For `CNc1cc(Nc2cccn(-c3ccccc3)c2=O)nn2c(C(=O)NC3CC3)cnc12` [Example 119], the 50% inhibitory concentration (IC50) was determined as 120 nM in experiment [1] (setting [3]) and 80 nM in experiment [2] (setting [4]).

For the compound `CCC(C)NC(=O)c1cnc2c(NC)cc(Nc3cncn(-c4ccccn4)c3=O)nn12` (single isomer, unassigned) [Example 76], the IC50 in experiment [1] (setting [3]) stood at 560 nM; in experiment [2] (setting [4]), 410 nM.

`CNc1cc(Nc2cncn(-c3ccccn3)c2=O)nn2c(C(=O)NC3CCC3)cnc12` [Example 71]: the IC50 came out at 120 nM in experiment [1] (setting [3]) and 210 nM in experiment [2] (setting [4]).

On to `CNc1cc(Nc2cccn(C)c2=O)nn2c(C(=O)NC3CCC3)cnc12` [Example 68], for which the IC50 worked out at 10 nM in experiment [1] (setting [3]) and 30 nM in experiment [2] (setting [4]).

Take `CNc1cc(Nc2cccn(-c3cc(C)on3)c2=O)nn2c(C(=O)NC3CCC3)cnc12` [Example 157]: the IC50 was found to be 20 nM in experiment [1] (setting [3]) and 30 nM in experiment [2] (setting [4]).

Consider `CNc1cc(Nc2cccn(-c3ccc(F)cc3)c2=O)nn2c(C(=O)NCC(C)(CO)CO)cnc12` [Example 14], for which the figures for the IC50 in experiment [1] (setting [3]) and in experiment [2] (setting [4]) were 460 nM and 570 nM, respectively.

As to `CNc1cc(Nc2cccn(C3CCN(C(=O)C4(C(F)(F)F)CC4)CC3)c2=O)nn2c(C(=O)NC3CC3)cnc12` [Example 246], the IC50 is 220 nM in experiment [1] (setting [5]) and 200 nM in experiment [2] (setting [6]).

Regarding `CCn1cc(Cl)cc(Nc2cc(NC)c3ncc(C(=O)NC4CC4)n3n2)c1=O` [Example 243, 6-((5-chloro-1-ethyl-2-oxo-1,2-dihydropyridin-3-yl)amino)-N-cyclopropyl-8-(methylamino)imidazo[1,2-b]pyridazine-3-carboxamide], the values for the IC50 in experiment [1] (setting [5]) and in experiment [2] (setting [6]) were 20 nM and 50 nM, respectively.

Regarding `CNc1cc(Nc2cccn(-c3cccc(F)n3)c2=O)nn2c(C(=O)NCc3nccs3)cnc12` [Example 192], the values for the IC50 in experiment [1] (setting [3]) and in experiment [2] (setting [4]) were 180 nM and 230 nM, respectively.

As to `CCNC(=O)c1cnc2c(NC)cc(Nc3cccn(-c4ccc(C)nn4)c3=O)nn12` [Example 99], the values for the IC50 in experiment [1] (setting [3]) and in experiment [2] (setting [4]) were 230 nM and 110 nM, respectively.

For `CNc1cc(Nc2cccn(-c3ccccc3)c2=O)nn2c(C(=O)NCc3nccs3)cnc12` [Example 182], the figures for the IC50 in experiment [1] (setting [3]) and in experiment [2] (setting [4]) were 270 nM and 220 nM, respectively.

In the case of `CNc1cc(Nc2cccn(-c3ccnc(F)c3)c2=O)nn2c(C(=O)NC3CC3)cnc12` [Example 134], the results for the IC50 in experiment [1] (setting [3]) and in experiment [2] (setting [4]) were 140 nM and 220 nM, respectively.

As for `CNc1cc(Nc2cccn(-c3ccccc3F)c2=O)nn2c(C(=O)NC3CC3)cnc12` [Example 152], the IC50 in experiment [1] (setting [3]) was 120 nM; in experiment [2] (setting [4]), 360 nM.

Regarding `CNc1cc(Nc2cc(F)cn(CCF)c2=O)nn2c(C(=O)NC3CC3)cnc12` [Example 21], the IC50 came out at 110 nM in experiment [1] (setting [3]) and 610 nM in experiment [2] (setting [4]).

`CNc1cc(Nc2cc(F)cn(-c3ccccn3)c2=O)nn2c(C(=O)NC3CCC3)cnc12` [Example 150]: the IC50 is 20 nM in experiment [1] (setting [3]) and 60 nM in experiment [2] (setting [4]).

For `CNc1cc(Nc2cccn(-c3ccn(C4CC4)n3)c2=O)nn2c(C(=O)N[C@@H]3C[C@@H]3F)cnc12` [Example 164], the results for the IC50 in experiment [1] (setting [3]) and in experiment [2] (setting [4]) were 20 nM and 50 nM, respectively.

Regarding `CNc1cc(Nc2cccn(-c3ccccc3)c2=O)nn2c(C(=O)N[C@@H]3CCOC3)cnc12` [Example 7, (R)-8-(Methylamino)-6-((2-oxo-1-phenyl-1,2-dihydropyridin-3-yl)amino)-N-(tetrahydrofuran-3-yl)imidazo[1,2-b]pyridazine-3-carboxamide], the values for the IC50 in experiment [1] (setting [5]) and in experiment [2] (setting [6]) were 300 nM and 270 nM, respectively.

On to `CNc1cc(Nc2cccn(-c3ccc(C(=O)N4CCC4)cn3)c2=O)nn2c(C(=O)N[C@@H]3C[C@@H]3F)cnc12` [compound 264], for which the IC50 in experiment [1] (setting [5]) came to 40 nM; in experiment [2] (setting [6]), 90 nM.

With `CNc1cc(Nc2cccn(-c3ncccn3)c2=O)nn2c(C(=O)N[C@@H]3C[C@@H]3F)cnc12` [Example 55], the results for the IC50 in experiment [1] (setting [3]) and in experiment [2] (setting [4]) were 230 nM and 180 nM, respectively.

With `CNc1cc(Nc2cccn(-c3ccn(C4CC4)n3)c2=O)nn2c(C(=O)NC3CC3)cnc12` [Example 165], the IC50 in experiment [1] (setting [3]) stood at 130 nM; in experiment [2] (setting [4]), 430 nM.

Consider `CNc1cc(Nc2cccn(-c3ccc(OC)nc3)c2=O)nn2c(C(=O)NC3CC3)cnc12` [Example 204], for which the IC50 in experiment [1] (setting [3]) is 100 nM; in experiment [2] (setting [4]), 70 nM.

Take `CNc1cc(Nc2cccn(C)c2=O)nn2c(C(=O)N[C@@H]3C[C@@H]3F)cnc12` [Example 116]: the IC50 in experiment [1] (setting [3]) worked out at 50 nM; in experiment [2] (setting [4]), 80 nM.

Take `CNc1cc(Nc2cccn(C3CCN(C(=O)C4CC4(F)F)CC3)c2=O)nn2c(C(=O)NC3CC3)cnc12` (stereo not shown) [Example 248]: the IC50 stood at 230 nM in experiment [1] (setting [5]) and 280 nM in experiment [2] (setting [6]).

Take `CNc1cc(Nc2cccn(-c3ccc(C)nn3)c2=O)nn2c(C(=O)NC3CCCC3)cnc12` [Example 95]: the IC50 in experiment [1] (setting [3]) came to 150 nM; in experiment [2] (setting [4]) it was 160 nM.

In the case of `CNc1cc(Nc2cccn(C(C)C)c2=O)nn2c(C(=O)NC3CC3)cnc12` [Example 213], the IC50 in experiment [1] (setting [3]) was 420 nM; in experiment [2] (setting [4]), 230 nM.

`CNc1cc(Nc2cccn(-c3cccc(F)n3)c2=O)nn2c(C(=O)NC3(C#N)CC3)cnc12` [Example 167]: the IC50 in experiment [1] (setting [3]) is 130 nM; in experiment [2] (setting [4]), 100 nM.

Turning to `CNc1cc(Nc2cccn(-c3cccc(C(C)(C)O)n3)c2=O)nn2c(C(=O)N[C@@H]3C[C@@H]3F)cnc12` [Example 82], the IC50 in experiment [1] (setting [3]) and in experiment [2] (setting [4]) was 40 nM each time.

Take `CNc1cc(Nc2cc(F)cn(CC3CC3)c2=O)nn2c(C(=O)NC3(C#N)CC3)cnc12` [Example 16]: the IC50 in experiment [1] (setting [3]) is 360 nM; in experiment [2] (setting [4]), 400 nM.

`CCC(C)NC(=O)c1cnc2c(NC)cc(Nc3cccn(C)c3=O)nn12` (single isomer, unassigned) [Example 72]: the IC50 in experiment [1] (setting [3]) stood at 440 nM; in experiment [2] (setting [4]), 460 nM.

On to `CNc1cc(Nc2cccn(C3CCC3)c2=O)nn2c(C(=O)NC3(C#N)CC3)cnc12` [Example 229], for which the IC50 was 180 nM in experiment [1] (setting [3]) and 240 nM in experiment [2] (setting [4]).

In the case of `CNc1cc(Nc2cccn(-c3cnccn3)c2=O)nn2c(C(=O)NC3CCC(O)C3(C)C)cnc12` (stereo not shown) [compound 259], the IC50 stood at 420 nM in experiment [1] (setting [5]) and 610 nM in experiment [2] (setting [6]).

Consider `CNc1cc(Nc2cccn(-c3ccc(C(C)O)cn3)c2=O)nn2c(C(=O)NC3CC3)cnc12` (stereo not shown) [compound 254], for which the IC50 in experiment [1] (setting [5]) is 260 nM; in experiment [2] (setting [6]) it was 230 nM.

Take `CNc1cc(Nc2cccn(-c3ccc(F)cc3)c2=O)nn2c(C(=O)NC3(C#N)CC3)cnc12` [Example 12]: the half-maximal inhibitory concentration (IC50) amounted to 100 nM in experiment [1] (setting [3]) and 170 nM in experiment [2] (setting [4]).

For `CNc1cc(Nc2nccn(C)c2=O)nn2c(C(=O)NC3CCC3)cnc12` [Example 84], the IC50 was determined as 4270 nM in experiment [1] (setting [3]) and 3860 nM in experiment [2] (setting [4]).

`CNc1cc(Nc2cccn(-c3cc(C)n(C)n3)c2=O)nn2c(C(=O)NC3CC3)cnc12` [Example 154]: the IC50 in experiment [1] (setting [3]) came out at 30 nM; in experiment [2] (setting [4]) it was 40 nM.

`CNc1cc(Nc2cccn(-c3ccc(C(C)(C)O)cn3)c2=O)nn2c(C(=O)NC3CC3)cnc12` [Example 252, N-cyclopropyl-6-((5′-(2-hydroxypropan-2-yl)-2-oxo-2H-[1,2′-bipyridin]-3-yl)amino)-8-(methylamino)imidazo[1,2-b]pyridazine-3-carboxamide]: the IC50 in experiment [1] (setting [5]) worked out at 190 nM; in experiment [2] (setting [6]), 450 nM.

Take `CNc1cc(Nc2cccn(C)c2=O)nn2c(C(=O)NC3(C#N)CC3)cnc12` [Example 1, N-(1-Cyanocyclopropyl)-6-(1-methyl-2-oxo-1,2-dihydropyridin-3-ylamino)-8-(methylamino)imidazo[1,2-b]pyridazine-3-carboxamide]: the IC50 in experiment [1] (setting [5]) was 310 nM; in experiment [2] (setting [6]) it was 480 nM.

For `CNc1cc(Nc2cccn(C)c2=O)nn2c(C(=O)N[C@@H]3CCOC3)cnc12` [Example 57], the IC50 in experiment [1] (setting [3]) was determined as 520 nM; in experiment [2] (setting [4]), 300 nM.

Regarding `CNc1cc(Nc2cccn(-c3ccc(C(F)F)cc3)c2=O)nn2c(C(=O)NC3(C#N)CC3)cnc12` [Example 20], the figures for the IC50 in experiment [1] (setting [3]) and in experiment [2] (setting [4]) were 80 nM and 130 nM, respectively.

The record behind these values is US10273237B2, “Imidazopyridazine compounds useful as modulators of IL-12, IL-23 and/or IFN-α responses” (BRISTOL-MYERS SQUIBB COMPANY, priority 2013, dated 2019).
